# Test results reported in US6667387B1, “HCV core peptides” (priority 1992, dated 2003).
# Ends that are not written are not given here.
# What was measured:
# [1] = tested on: antibodies in sera from HCV-seropositive donors; experiment: ELISA with HCV antibody-positive sera (biotinylated peptides on streptavidin- or avidin-coated plates, unbiotinylated peptides coated directly); format: binding, human
# Procedure, shortened: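 Peptides coated either directly at 2–5 or 3 μg/ml in carbonate buffer pH 9.6, or biotinylated at 1 μg/ml on streptavidin-coated wells (3 μg/ml). Plates casein-blocked, then human sera (1:100 or 1:20) incubated 1 h at 37° C. Bound antibody detected with HRP anti-human Ig/TMB, read as OD450.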
# [2] = ELISA with seronegative / negative control sera (specificity); format: binding, human
# Procedure, shortened: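 Specificity readout is OD at 450 nm (HRP goat anti-human Ig, TMB/H2O2, sulfuric acid stop), with ≥0.250 counted positive. Seronegative donor sera (typically 1:100, 1 h, 37° C) were applied to casein-blocked wells coated with peptide directly or via streptavidin capture of biotinylated peptide.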
sequence,measurement,setting,value
ETWKKPDYEPPVVHGCPLPP,optical density (450 nm),"[1]; Table 4G, serum 1, 20-fold dilution",2.523
same,optical density (450 nm),"[1]; Table 4G, serum 33, 20-fold dilution",1.463
same,optical density (450 nm),"[1]; Table 4G, serum 39, 20-fold dilution",0.068
same,optical density (450 nm),"[1]; Table 4G, serum 47, 20-fold dilution",2.117
same,optical density (450 nm),"[1]; Table 4G, serum 79, 20-fold dilution",1.739
same,optical density (450 nm),"[1]; Table 4G, serum 83, 20-fold dilution",1.121
same,optical density (450 nm),"[1]; Table 4G, serum 88, 20-fold dilution",0.972
same,optical density (450 nm),"[1]; Table 4G, serum 89, 20-fold dilution",2.079
same,optical density (450 nm),"[1]; Table 4G, serum 91, 20-fold dilution",2.202
same,optical density (450 nm),"[1]; Table 4G, serum 99, 20-fold dilution",1.253
same,optical density (450 nm),"[1]; Table 4G, serum 104, 20-fold dilution",1.864
same,optical density (450 nm),"[1]; Table 4G, serum 105, 20-fold dilution",1.522
same,optical density (450 nm),"[1]; Table 4G, serum 110, 20-fold dilution",1.981
same,optical density (450 nm),"[1]; Table 4G, serum 111, 20-fold dilution",1.363
same,optical density (450 nm),"[1]; Table 4G, serum 112, 20-fold dilution",1.172
same,optical density (450 nm),"[1]; Table 4G, serum 116, 20-fold dilution",1.534
same,optical density (450 nm),"[1]; Table 4G, serum 120, 20-fold dilution",1.599
same,optical density (450 nm),"[1]; Table 5, sample 8242 (positive), peptide concentration 0.01 micrograms per milliliter, listed as Unbiotinylated HCV peptide XVIII",0.048
same,optical density (450 nm),"[1]; Table 5, sample 8242 (positive), peptide concentration 0.03 micrograms per milliliter, listed as Unbiotinylated HCV peptide XVIII",0.049
same,optical density (450 nm),"[1]; Table 5, sample 8242 (positive), peptide concentration 0.1 micrograms per milliliter, listed as Unbiotinylated HCV peptide XVIII",0.047
same,optical density (450 nm),"[1]; Table 5, sample 8242 (positive), peptide concentration 0.3 micrograms per milliliter, listed as Unbiotinylated HCV peptide XVIII",0.048
same,optical density (450 nm),"[1]; Table 5, sample 8242 (positive), peptide concentration 1.0 micrograms per milliliter, listed as Unbiotinylated HCV peptide XVIII",0.049
same,optical density (450 nm),"[1]; Table 5, sample 8242 (positive), peptide concentration 3.0 micrograms per milliliter, listed as Unbiotinylated HCV peptide XVIII",0.053
same,optical density (450 nm),"[1]; Table 5, sample 8243 (positive), peptide concentration 0.01 micrograms per milliliter, listed as Unbiotinylated HCV peptide XVIII",0.053
same,optical density (450 nm),"[1]; Table 5, sample 8243 (positive), peptide concentration 0.03 micrograms per milliliter, listed as Unbiotinylated HCV peptide XVIII",0.053
same,optical density (450 nm),"[1]; Table 5, sample 8243 (positive), peptide concentration 0.1 micrograms per milliliter, listed as Unbiotinylated HCV peptide XVIII",0.051
same,optical density (450 nm),"[1]; Table 5, sample 8243 (positive), peptide concentration 0.3 micrograms per milliliter, listed as Unbiotinylated HCV peptide XVIII",0.054
same,optical density (450 nm),"[1]; Table 5, sample 8243 (positive), peptide concentration 1.0 micrograms per milliliter, listed as Unbiotinylated HCV peptide XVIII",0.053
same,optical density (450 nm),"[1]; Table 5, sample 8243 (positive), peptide concentration 3.0 micrograms per milliliter, listed as Unbiotinylated HCV peptide XVIII",0.057
same,optical density (450 nm),"[1]; Table 5, sample 8318 (positive), peptide concentration 0.01 micrograms per milliliter, listed as Unbiotinylated HCV peptide XVIII",0.048
same,optical density (450 nm),"[1]; Table 5, sample 8318 (positive), peptide concentration 0.03 micrograms per milliliter, listed as Unbiotinylated HCV peptide XVIII",0.047
same,optical density (450 nm),"[1]; Table 5, sample 8318 (positive), peptide concentration 0.1 micrograms per milliliter, listed as Unbiotinylated HCV peptide XVIII",0.047
same,optical density (450 nm),"[1]; Table 5, sample 8318 (positive), peptide concentration 0.3 micrograms per milliliter, listed as Unbiotinylated HCV peptide XVIII",0.047
same,optical density (450 nm),"[1]; Table 5, sample 8318 (positive), peptide concentration 1.0 micrograms per milliliter, listed as Unbiotinylated HCV peptide XVIII",0.045
same,optical density (450 nm),"[1]; Table 5, sample 8318 (positive), peptide concentration 3.0 micrograms per milliliter, listed as Unbiotinylated HCV peptide XVIII",0.051
same,optical density (450 nm),"[1]; Table 5, sample 8326 (positive), peptide concentration 0.01 micrograms per milliliter, listed as Unbiotinylated HCV peptide XVIII",0.051
same,optical density (450 nm),"[1]; Table 5, sample 8326 (positive), peptide concentration 0.03 micrograms per milliliter, listed as Unbiotinylated HCV peptide XVIII",0.051
same,optical density (450 nm),"[1]; Table 5, sample 8326 (positive), peptide concentration 0.1 micrograms per milliliter, listed as Unbiotinylated HCV peptide XVIII",0.049
same,optical density (450 nm),"[1]; Table 5, sample 8326 (positive), peptide concentration 0.3 micrograms per milliliter, listed as Unbiotinylated HCV peptide XVIII",0.053
same,optical density (450 nm),"[1]; Table 5, sample 8326 (positive), peptide concentration 1.0 micrograms per milliliter, listed as Unbiotinylated HCV peptide XVIII",0.053
same,optical density (450 nm),"[1]; Table 5, sample 8326 (positive), peptide concentration 3.0 micrograms per milliliter, listed as Unbiotinylated HCV peptide XVIII",0.052
same,optical density (450 nm),"[2]; Table 4G, negative serum",0.001
same,optical density (450 nm),"[2]; Table 5, sample 1747 (negative), peptide concentration 0.01 micrograms per milliliter, listed as Unbiotinylated HCV peptide XVIII",0.047
same,optical density (450 nm),"[2]; Table 5, sample 1747 (negative), peptide concentration 0.03 micrograms per milliliter, listed as Unbiotinylated HCV peptide XVIII",0.044
same,optical density (450 nm),"[2]; Table 5, sample 1747 (negative), peptide concentration 0.1 micrograms per milliliter, listed as Unbiotinylated HCV peptide XVIII",0.045
same,optical density (450 nm),"[2]; Table 5, sample 1747 (negative), peptide concentration 0.3 micrograms per milliliter, listed as Unbiotinylated HCV peptide XVIII",0.046
same,optical density (450 nm),"[2]; Table 5, sample 1747 (negative), peptide concentration 1.0 micrograms per milliliter, listed as Unbiotinylated HCV peptide XVIII",0.045
same,optical density (450 nm),"[2]; Table 5, sample 1747 (negative), peptide concentration 3.0 micrograms per milliliter, listed as Unbiotinylated HCV peptide XVIII",0.048
same,optical density (450 nm),"[2]; Table 5, sample 1781 (negative), peptide concentration 0.01 micrograms per milliliter, listed as Unbiotinylated HCV peptide XVIII",0.053
same,optical density (450 nm),"[2]; Table 5, sample 1781 (negative), peptide concentration 0.03 micrograms per milliliter",0.051
same,optical density (450 nm),"[2]; Table 5, sample 1781 (negative), peptide concentration 0.1 micrograms per milliliter, listed as Unbiotinylated HCV peptide XVIII",0.051
same,optical density (450 nm),"[2]; Table 5, sample 1781 (negative), peptide concentration 0.3 micrograms per milliliter, listed as Unbiotinylated HCV peptide XVIII",0.051
same,optical density (450 nm),"[2]; Table 5, sample 1781 (negative), peptide concentration 1.0 micrograms per milliliter, listed as Unbiotinylated HCV peptide XVIII",0.054
same,optical density (450 nm),"[2]; Table 5, sample 1781 (negative), peptide concentration 3.0 micrograms per milliliter, listed as Unbiotinylated HCV peptide XVIII",0.055
